# In US20240300927A1, “AMIDES AS CBL-B INHIBITORS” (Genentech, Inc., priority 2021, published 2024):
# pEC50, pIC50: −log10 of the molar value. Like-named read-outs stand apart in the source and are kept apart here.
# How the values were obtained:
# [1] = test system: PBMCs; assay: PBMC IL-2 assay; format: cell-based; settings: read-out: PBMC IL-2 Cell EC50
# Protocol: Immune response to compounds described herein can be assessed via a PBMC IL-2 assay, conducted according to the following protocol. PBMCs (#A19K379053, A19K261022; TPCS) are thawed into complete medium: 1640 medium (#2085568; Gibco), 10% FBS (#SH30084.03; HyClone), and 1× pen/strep. Compounds are 3-fold serially diluted in DMSO in a 384-well polypropylene plate (#P-05525-BC; Labcyte) using the Tecan EVO to generate a source plate with 10 concentrations of each compound, top concentration=4 mM. Compounds are dispensed into a 96-well plate (#6005680; PerkinElmer) using a Labcyte Echo; final dispensed volume of each control and compound is 1000 nL (final DMSO=0.5%). After recovery overnight, cells are seeded at 2×10^5 cells/well into 96-well plates containing compounds and incubated at 37° C., 5% CO2 for 30 min. Cells are stimulated by adding 20 μL/well 1/10 TransAct (#130-111-160; Miltenyi) diluted in complete medium, placed on a shaker for 2 min at 600 rpm, and incubated for 24 h at 37° C., 5% CO2. Plates are centrifuged at 1200 rpm for 5 min and 120 μL cell supernatant collected. Supernatants are diluted 10-fold and IL-2 concentrations of each sample are determined using the IL-2 MSD kit (#K151AHB-4; MSD) per the manufacturer's instructions.
# [2] = In vitro plasma protein binding, human; format: in vitro ADME; settings: pooled human plasma, read-out: PPB % (H/R/M) (converted)
# Protocol: (§1) In vitro plasma protein binding (n=2) was determined in pooled mouse, rat, and human plasma (Bioreclamation, Inc., Hicksville, NY) by equilibrium dialysis using a Rapid Equilibrium Dialysis (RED) device (Pierce Biotechnology/Thermo Fisher Scientific; Rockford, IL) with a molecular weight cut-off of 8000 Daltons. Test compounds were added to plasma. Plasma samples were equilibriated with phosphate-buffered saline at 37° C. for 4 hours. Compound concentrations in post-dialysis plasma and buffer samples were measured by LC-MS/MS. The percent unbound fraction in plasma for each compound was calculated by dividing the compound concentration in the post-dialysis buffer by that measured in the post-dialysis plasma and multiplying by 100%.
# [3] = In vitro plasma protein binding, mouse; format: in vitro ADME; settings: pooled mouse plasma, read-out: PPB % (H/R/M) (converted)
# Protocol: as §1
# [4] = Liver microsomes metabolic stability, human; format: in vitro ADME
# [5] = Liver microsomes metabolic stability, rat; format: in vitro ADME
# Protocol: Metabolic stability of test compounds was evaluated in pooled rat, mouse, dog, and cynomolgus monkey liver microsomes (BD Biosciences, San Jose, CA). The incubation conditions were as follows: 1 μM of the tested compound, 1 mM NADPH, 0.5 mg/mL microsomal protein in 0.1 M potassium phosphate buffer (pH 7.4). Following a 5-minute pre-incubation period, the enzymatic reactions were initiated by the addition of NADPH and test compound to the microsomes diluted in phosphate buffered saline. The mixtures were incubated at 37° C. for 0, 20, 40, and 60 min.
# Compound concentrations were assessed by LC-MS/MS. Intrinsic clearance based upon microsomal stability data was determined using a substrate depletion method and scaled to hepatic clearance using the well-stirred model (Obach, R. S.; Baxter, J. G.; Liston, T. E.; Silber, B. M.; Jones, B. C.; MacIntyre, F.; Rance, D. J.; Wastall, P., “The Prediction of Human Pharmacokinetic Parameters from Preclinical and in vitro Metabolism Data”, J. Pharmacol. Exp. Ther., (1997), 283 (1), 46-58).
# [6] = biological target: CYP3A4 (Homo sapiens (Human), UniProt P08684); assay: Reversible CYP inhibition, CYP3A4; format: in vitro ADME
# Chain of CYP3A4 (P08684 whole entry): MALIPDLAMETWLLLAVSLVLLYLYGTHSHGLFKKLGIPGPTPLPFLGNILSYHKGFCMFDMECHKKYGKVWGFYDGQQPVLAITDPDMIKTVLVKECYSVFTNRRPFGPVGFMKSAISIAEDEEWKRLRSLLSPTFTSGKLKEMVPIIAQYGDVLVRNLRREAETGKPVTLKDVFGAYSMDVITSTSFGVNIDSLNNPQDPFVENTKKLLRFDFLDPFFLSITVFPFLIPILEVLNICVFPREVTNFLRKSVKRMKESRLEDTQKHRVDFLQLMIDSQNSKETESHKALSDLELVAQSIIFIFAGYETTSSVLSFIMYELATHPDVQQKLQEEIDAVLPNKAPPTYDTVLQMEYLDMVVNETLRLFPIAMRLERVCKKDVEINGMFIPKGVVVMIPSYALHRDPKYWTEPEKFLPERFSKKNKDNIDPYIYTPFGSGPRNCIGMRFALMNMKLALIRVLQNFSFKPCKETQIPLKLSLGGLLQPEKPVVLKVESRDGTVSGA
# From the text: Reversible CYP inhibition by compounds described herein can be measured by protocols described by Halladay, J. S.; Delarosa, E. M.; Tran, D.; Wang, L.; Wong, S.; Khojasteh, S. C., “High-Throughput, 384-Well, LC-MS/MS CYP Inhibition Assay Using Automation, Cassette-Analysis Technique, and Streamlined Data Analysis”, Drug. Metab. Lett. 2011, 5 (3), 220-230, incorporated herein by reference.
# In the CYP3A4 measurements, potency is less desirable.
# [7] = Mouse PK; format: in vivo
# [8] = Kinetic solubility; format: physicochemical; settings: kinetic from dmso stock
smiles,measurement,setting,value
"CC(C)[C@H]1CN(C)CCN1Cc1cc(C(=O)Nc2cccc(C3(Cc4nncn4C)CC(F)(F)C3)c2)nc(C2CC2)c1 [Compound 224, (S)-6-cyclopropyl-N-(3-(3,3-difluoro-1-((4-methyl-4H-1,2,4-triazol-3-yl)methyl)cyclobutyl)phenyl)-4-((2-isopropyl-4-methylpiperazin-1-yl)methyl)picolinamide]",pEC50,[1],7.49
same,fraction unbound at 4 h,[2],0.14
same,fraction unbound at 4 h,[3],0.06
same,LM (H/R/M/D/C),[4],18
same,LM (H/R/M/D/C),[5],38
same,pIC50,"[6]; M, read-out: CYP3A4 IC50 (M/T)",6.19
same,pIC50,[6]; T,5.17
same,Mouse PK unbound CLp,[7],(unbound CLp 683)
same,clearance,"[7]; plasma, intravenous, read-out: Mouse PK CLp",41 mL/min/kg
same,bioavailability,"[7]; plasma, oral, read-out: Mouse PK F %",3.4%
same,solubility,"[8]; value in parentheses, not explained, read-out: Kinet. Solub. (uM), second value in parentheses",8.5 µM
same,solubility,[8]; read-out: Kinet. Solub.,8.3 µM
